Source: article PMC10574154, “Antioxidant and Anti-Aging Phytoconstituents from Faucaria tuberculosa: In Vitro and In Silico Studies” (Molecules, 2023)
Values after ≈ are worked out from the molar mass of the structure shown.

Tests used:
[1] = ABTS radical scavenging assay; format: biochemical; conditions: mean ± SD (n = 3)
[2] = Ferric reducing/antioxidant power (FRAP) assay; format: biochemical; conditions: mean ± SD (n = 3)
Method: The antioxidant activity of the isolated compounds was determined using ABTS and FRAP assays in triplicate, and the average values were considered.
Herein, antioxidant potential was measured based on the samples’ ability to reduce ferric to ferrous ion. This method relies on the reduction of ferricyanide relative to the sample. Samples (1 mL) were mixed with 2.5 mL of each of sodium phosphate buffer and K3Fe (CN)6, and then the reaction mixture was incubated (50 °C, 20 min). Afterward, 2.5 mL of trichloroacetic acid was added, and centrifugation (1000× g, 10 min) was carried out. Some 2.5 mL of the supernatant solution and an equal amount of deionized H2O and 0.5 mL of ferric chloride were then mixed, and the absorbance was recorded at 700 nm.

Q: For `O=C1O[C@H]([C@@H](O)CO)C(O)=C1O` [Ascorbic acid, reference compound], which “IC50 Value ABTS Assay” value [1] is on record?
A: 10.67 ± 0.85 µg/mL (≈ 60.6 µM)

Q: What about the “IC50 Value FRAP Assay” value [2] of the same molecule?
A: 20.86 ± 1.28 µg/mL (≈ 118 µM)

Q: With `Oc1cc(O)cc(O)c1` [Compound 1, phloroglucinol] as the molecule, how does the “IC50 Value ABTS Assay” value [1] read?
A: 6.44 ± 0.47 µg/mL (≈ 51.1 µM)

Q: And the “IC50 Value FRAP Assay” value [2]?
A: 12.89 ± 0.93 µg/mL (≈ 102 µM)

Q: Which “IC50 Value ABTS Assay” value [1] does the source give for `OC[C@H]1O[C@@H](Oc2cc(O)cc(O)c2)[C@H](O)[C@@H](O)[C@@H]1O` [Compound 2, 3,5-dihydroxyphenyl β-D-glucopyranoside] here?
A: 43.40 ± 3.18 µg/mL (≈ 151 µM)

Q: And the “IC50 Value FRAP Assay” value [2]?
A: 64.52 ± 4.15 µg/mL (≈ 224 µM)

Q: Which “IC50 Value ABTS Assay” value [1] does the source give for `COc1cc(-c2oc3cc(O)cc(O)c3c(=O)c2OC2OC(COC3OC(C)C(O)C(O)C3O)C(O)C(O)C2O)ccc1O` (stereo not shown) [Compound 3, isorhamnetin 3-O-rutinoside] here?
A: 12.24 ± 0.61 µg/mL (≈ 19.6 µM)

Q: What about the “IC50 Value FRAP Assay” value [2] of the same molecule?
A: 25.24 ± 2.03 µg/mL (≈ 40.4 µM)

Q: Which results are given for `COc1cc(-c2oc3cc(O)cc(O)c3c(=O)c2OC2OC(COC3OC(C)C(OC4OC(C)C(O)C(O)C4O)C(O)C3O)C(O)C(O)C2O)ccc1O` (stereo not drawn) [Compound 5, Isorhamnetin 3-O-[α-rhamnopyranosyl-(1→4)-α-rhamnopyranosyl-(1→6)-β-glucopyranoside]]?
A: IC50 Value ABTS Assay [1]: 18.19 ± 2.94 µg/mL (≈ 23.6 µM); IC50 Value FRAP Assay [2]: 35.04 ± 2.89 µg/mL (≈ 45.5 µM)
